Source: US20120197004A1, “NOVEL ANTI-MICROBIAL PEPTIDOMIMETIC COMPOUNDS AND METHODS TO CALCULATE ANTI-MICROBIAL ACTIVITY” (priority 2006, published 2012)
≈ marks a conversion by molar mass, not a printed value. Read-outs that look alike come from different tables or passages of the source. Where a SMILES comes first, the peptide text is derived from it. [ ]: non-standard residue; d: D form. The star is where a group is joined. ξ: configuration not given here. Biotin = O=C1N[C@H]2[C@H](CS[C@H]2CCCCC(=O)*)N1; Oic = O=C(O)[C@@H]1C[C@@H]2CCCC[C@@H]2N1; Tic = O=C(O)[C@@H]1Cc2ccccc2CN1; ξTic = O=C(O)C1Cc2ccccc2CN1; ξOic = O=C(O)C1CC2CCCCC2N1; Orn = NCCC[C@H](N)C(=O)O; NH(CH2)3NH2 = NCCCN*; Ahx = NCCCCCC(=O)O

Columns and labels:
[1] = system: Bacillus subtillis (ATCC 43223); conditions: for p(MIC) Bacillus Subtillis: -log(MIC); for MIC Bacillus Subtillis: ATCC 43223
[2] = system: red blood cells
[3] = system: Staphylococcus aureus Methicillin/Gentamicin/Tetracycline Resistant (ATCC 33592); conditions: for p(MIC) Staphylococcus aureus ME/GM/TC resistant: -log(MIC); for Minimum Inhibitory Concentration Staphylococcus aureus ME/GM/TC resistant: in vitro MIC, tested at 100, 30, 10, 3, 1, 0.3 and 0.1 μM in 1% DMSO; for Actual Bioactivity: p(MIC) used in Staphylococcus aureus QSAR model; for MIC Staphylococcus aureus ME/GM/TC resistant: Minimal Inhibitory Concentration, tested at 100-0.1 in 1% DMSO
[4] = system: Mycobacterium ranae (ATCC 110)
[5] = system: Salmonella typhimurium (ATCC 13311); conditions: for p(MIC) Salmonella typhimurium: -log(MIC); for MIC Salmonella typhimurium: ATCC 13311
[6] = in vitro; conditions: dog, microsomes, pH 7.4
[7] = in vitro; conditions: monkey, microsomes, pH 7.4
[8] = in vitro; conditions: rat, microsomes, pH 7.4
[9] = in vitro; conditions: mouse, microsomes, pH 7.4

SMILES	p(MIC) Bacillus Subtillis [1]	MIC Bacillus Subtillis [1] [µM]	% hemolysis 100/25 μM (first value) [2] [%/]	% hemolysis 100/25 μM (second value) [2] [%]	p(MIC) Staphylococcus aureus ME/GM/TC resistant [3]	Minimum Inhibitory Concentration Staphylococcus aureus ME/GM/TC resistant [3] [µM]	Actual Bioactivity [3]	Actual Bioactivity [4]	MIC Mycobacterium ranae ([4]; ATCC 110) [µM]	Minimum Inhibitory Concentration Mycobacterium ranae ([4]; ATCC 110) [µM]	p(MIC) Salmonella typhimurium [5]	MIC Salmonella typhimurium [5] [µM]	MIC Staphylococcus aureus ME/GM/TC resistant [3] [µM]	other results
NCCCC[C@H](NC(=O)[C@H](CCCCN)NC(=O)[C@H](CCCCN)NC(=O)[C@H](CCCCN)NC(=O)[C@@H]1Cc2ccccc2CN1C(=O)[C@H](CCCCN)NC(=O)CNC(=O)[C@@H]1C[C@@H]2CCCC[C@@H]2N1C(=O)[C@@H]1Cc2ccccc2CN1C(=O)[C@H](Cc1ccccc1)NC(=O)CNC(=O)[C@@H]1C[C@@H]2CCCC[C@@H]2N1C(=O)[C@@H]1Cc2ccccc2CN1C(=O)[C@H](CCCCN)NC(=O)CNC(=O)[C@@H]1C[C@@H]2CCCC[C@@H]2N1C(=O)[C@@H]1Cc2ccccc2CN1C(=O)[C@H](Cc1ccccc1)NC(=O)CN)C(N)=O [FKAB-1Ga, NH2--GF-Tic-Oic-GK-Tic-Oic-GF-Tic-Oic-GK-Tic-KKKK-CONH2] (H-GF[Tic][Oic]GK[Tic][Oic]GF[Tic][Oic]GK[Tic]KKKK-NH2)	6.00	1.00 (≈ 2.4 µg/mL)	33.4	14.3	5.00	10	5.000	5.000	10.00 (≈ 24 µg/mL)	10	5.52	3 (≈ 7.2 µg/mL)	–	–
CC(=O)N[C@@H](Cc1ccccc1)C(=O)N1Cc2ccccc2C[C@H]1C(=O)N1[C@H](C(=O)N[C@@H](CCCCN)C(=O)N2Cc3ccccc3C[C@H]2C(=O)N2[C@H](C(=O)N[C@@H](Cc3ccccc3)C(=O)N3Cc4ccccc4C[C@H]3C(=O)N3[C@H](C(=O)N[C@@H](CCCCN)C(=O)N4Cc5ccccc5C[C@H]4C(=O)N[C@@H](CCCCN)C(=O)N[C@@H](CCCCN)C(=O)N[C@@H](CCCCN)C(=O)N[C@@H](CCCCN)C(=O)N[C@@H](CCCCN)C(=O)N[C@@H](CCCCN)C(N)=O)C[C@@H]4CCCC[C@@H]43)C[C@@H]3CCCC[C@@H]32)C[C@@H]2CCCC[C@@H]21 [FKAB-1Gc1, Ac-F-Tic-Oic-K-Tic-Oic-F-Tic-Oic-K-Tic-KKKKKK-CONH2] (Ac-F[Tic][Oic]K[Tic][Oic]F[Tic][Oic]K[Tic]KKKKKK-NH2)	6.00	1.00 (≈ 2.47 µg/mL)	41.3	33.5	5.52	3	5.520	5.520	3.00 (≈ 7.41 µg/mL)	–	5.00	10 (≈ 24.7 µg/mL)	3.00 (≈ 7.41 µg/mL)	SA Activity ([3]; Staphylococcus aureus (SA), Table 30): 3; MR Activity [4]: 3 µM; Minimum Inhibitory Concentration Mycobacterium ranae [4]: 3 µM
CC(=O)NCCCCCC(=O)N[C@@H](Cc1ccccc1)C(=O)N1Cc2ccccc2C[C@H]1C(=O)N1[C@H](C(=O)NCCCCCC(=O)N[C@@H](CCCCN)C(=O)N2Cc3ccccc3C[C@H]2C(=O)N2[C@H](C(=O)NCCCCCC(=O)N[C@@H](Cc3ccccc3)C(=O)N3Cc4ccccc4C[C@H]3C(=O)N3[C@H](C(=O)NCCCCCC(=O)N[C@@H](CCCCN)C(=O)N4Cc5ccccc5C[C@H]4C(=O)N[C@@H](CCCCN)C(=O)N[C@@H](CCCCN)C(=O)N[C@@H](CCCCN)C(=O)N[C@@H](CCCCN)C(N)=O)C[C@@H]4CCCC[C@@H]43)C[C@@H]3CCCC[C@@H]32)C[C@@H]2CCCC[C@@H]21 [FKAB-1Gd2, Ac-Ahx-F-Tic-Oic-Ahx-K-Tic-Oic-Ahx-F-Tic-Oic-Ahx-K-Tic-KKKK-CONH2] (Ac-[Ahx]F[Tic][Oic][Ahx]K[Tic][Oic][Ahx]F[Tic][Oic][Ahx]K[Tic]KKKK-NH2)	6.00	1.00 (≈ 2.67 µg/mL)	44.7	26.6	5.00	10	5.000	5.520	3.00 (≈ 8 µg/mL)	3	5.00	10 (≈ 26.7 µg/mL)	10.00 (≈ 26.7 µg/mL)	–
CC(=O)NCC(=O)N[C@@H](Cc1ccccc1)C(=O)NCC(=O)N1C(C(=O)NCC(=O)N[C@@H](CCCCN)C(=O)NCC(=O)N2C(C(=O)NCC(=O)N[C@@H](Cc3ccccc3)C(=O)NCC(=O)N3C(C(=O)NCC(=O)N[C@@H](CCCCN)C(=O)NCC(=O)N[C@@H](CCCCN)C(=O)N[C@@H](CCCCN)C(=O)N[C@@H](CCCCN)C(=O)N[C@@H](CCCCN)C(N)=O)CC4CCCCC43)CC3CCCCC32)CC2CCCCC21 (stereo partly drawn) [FKAB-1Gf1, Ac-GF-G-Oic-GK-G-Oic-GF-G-Oic-GK-G-KKKK-CONH2] (Ac-GFG[ξOic]GKG[ξOic]GFG[ξOic]GKGKKKK-NH2)	–	30.00 (≈ 61 µg/mL)	3.30	3.3	–	–	–	–	100.00 (≈ 203 µg/mL)	–	–	–	–	–
CC(=O)NCC(=O)N[C@@H](Cc1ccccc1)C(=O)N1Cc2ccccc2CC1C(=O)NCC(=O)NCC(=O)N[C@@H](CCCCN)C(=O)N1Cc2ccccc2CC1C(=O)NCC(=O)NCC(=O)N[C@@H](Cc1ccccc1)C(=O)N1Cc2ccccc2CC1C(=O)NCC(=O)NCC(=O)N[C@@H](CCCCN)C(=O)N1Cc2ccccc2CC1C(=O)N[C@@H](CCCCN)C(=O)N[C@@H](CCCCN)C(=O)N[C@@H](CCCCN)C(=O)N[C@@H](CCCCN)C(N)=O (stereo partly drawn) [FKAB-1Gg1, Ac-GF-Tic-G-GK-Tic-G-GF-Tic-G-GK-Tic-KKKK-CONH2] (Ac-GF[ξTic]GGK[ξTic]GGF[ξTic]GGK[ξTic]KKKK-NH2)	–	10.00 (≈ 21.6 µg/mL)	5.70	3.80	–	–	–	–	30.00 (≈ 64.8 µg/mL)	–	–	100 (≈ 216 µg/mL)	–	–
CC(=O)NCC(=O)N[C@@H](Cc1ccccc1)C(=O)N1Cc2ccccc2C[C@H]1C(=O)N1[C@H](C(=O)NCC(=O)N[C@@H](CCCCN)C(=O)N2Cc3ccccc3C[C@H]2C(=O)N2[C@H](C(=O)NCC(=O)N[C@@H](Cc3ccccc3)C(=O)N3Cc4ccccc4C[C@H]3C(=O)N3[C@H](C(=O)NCC(=O)N[C@@H](CCCCN)C(=O)N4Cc5ccccc5C[C@H]4C(=O)N[C@@H](CCCN)C(=O)N[C@@H](CCCN)C(=O)N[C@@H](CCCN)C(=O)N[C@@H](CCCN)C(N)=O)C[C@@H]4CCCC[C@@H]43)C[C@@H]3CCCC[C@@H]32)C[C@@H]2CCCC[C@@H]21 [FKAB-1Gj, Ac-GF-Tic-Oic-GK-Tic-Oic-GF-Tic-Oic-GK-Tic-Orn-Orn-Orn-Orn-CONH2] (Ac-GF[Tic][Oic]GK[Tic][Oic]GF[Tic][Oic]GK[Tic][Orn][Orn][Orn][Orn]-NH2)	6.00	1.00 (≈ 2.38 µg/mL)	–	–	5.00	10	5.000	5.000	10.00 (≈ 23.8 µg/mL)	–	5.00	10 (≈ 23.8 µg/mL)	10.00 (≈ 23.8 µg/mL)	Minimum Inhibitory Concentration Mycobacterium ranae [4]: 10 µM
NCCCC[C@H](NC(=O)[C@H](CCCCN)NC(=O)[C@H](CCCCN)NC(=O)[C@H](CCCCN)NC(=O)C1Cc2ccccc2CN1C(=O)[C@H](CCCCN)NC(=O)CNC(=O)C1CC2CCCCC2N1C(=O)C1Cc2ccccc2CN1C(=O)[C@H](Cc1ccccc1)NC(=O)CNC(=O)C1CC2CCCCC2N1C(=O)C1Cc2ccccc2CN1C(=O)[C@H](CCCCN)NC(=O)CNC(=O)C1CC2CCCCC2N1C(=O)C1Cc2ccccc2CN1C(=O)[C@H](Cc1ccccc1)NC(=O)CNC(=O)CCCC[C@@H]1SC[C@@H]2NC(=O)N[C@@H]21)C(N)=O (stereo partly drawn) [FKAB-1Gl, Biotin-GF-Tic-Oic-GK-Tic-Oic-GF-Tic-Oic-GK-Tic-KKKK-CONH2] (Biotin-GF[ξTic][ξOic]GK[ξTic][ξOic]GF[ξTic][ξOic]GK[ξTic]KKKK-NH2)	–	–	–	–	–	3	–	–	–	10	–	–	–	remaining at 0.5 h, 1 μM [6]: 84%; remaining at 1 h, 1 μM [6]: 80%; remaining at 0.25 h, 1 μM [7]: 80%; remaining at 0.5 h, 1 μM [7]: 77%; remaining at 1 h, 1 μM [7]: 77%; remaining at 0.25 h, 1 μM [8]: 73%; remaining at 0.5 h, 1 μM [8]: 83%; remaining at 1 h, 1 μM [8]: 105%; remaining at 0.25 h, 1 μM [9]: 96%; remaining at 0.5 h, 1 μM [9]: 87%; remaining at 1 h, 1 μM [9]: 78%
CC(=O)NCC(=O)N[C@@H](Cc1ccccc1)C(=O)N1Cc2ccccc2C[C@H]1C(=O)N1[C@H](C(=O)NCC(=O)N[C@@H](CCCCN)C(=O)N2Cc3ccccc3C[C@H]2C(=O)N2[C@H](C(=O)NCC(=O)N[C@@H](Cc3ccccc3)C(=O)N3Cc4ccccc4C[C@H]3C(=O)N3[C@H](C(=O)NCC(=O)N[C@@H](CCCCN)C(=O)N4Cc5ccccc5C[C@H]4C(=O)N[C@@H](CCCCN)C(=O)N[C@@H](CCCCN)C(=O)N[C@@H](CCCCN)C(=O)N[C@@H](CCCCN)C(=O)NCCCN)C[C@@H]4CCCC[C@@H]43)C[C@@H]3CCCC[C@@H]32)C[C@@H]2CCCC[C@@H]21 [FKAB-1L, Ac-GF-Tic-Oic-GK-Tic-Oic-GF-Tic-Oic-GK-Tic-KKKK-CONH—CH2—CH2—CH2—NH2] (Ac-GF[Tic][Oic]GK[Tic][Oic]GF[Tic][Oic]GK[Tic]KKKK-{NH(CH2)3NH2})	5.52	3.00 (≈ 7.49 µg/mL)	–	–	5.00	10	5.000	5.000	10.00 (≈ 25 µg/mL)	10	4.52	30 (≈ 74.9 µg/mL)	10.00 (≈ 25 µg/mL)	–
